“Also recorded” adds a separate entry of the source. Like-named read-outs stand apart in the source and are kept apart here. Blank lines part the entries; values can stand above or below the compound they belong to.
What was measured:
tyrosinase [1] = conditions: background; cited from earlier work
skin [2] = conditions: background; cited from earlier work
skin [3] = conditions: background; cited from earlier work; remark: listed apart in the source
tyrosinase [4] = test: Tyrosinase inhibition effect (mushroom tyrosinase, tyrosine substrate, absorbance at 475 nm); assay type: biochemical; conditions: pH 6.8, 37° C., 10 minutes
Protocol: The substrate, tyrosine was used as a solution (0.1 mg/ml) dissolved in 0.05 M sodium phosphate buffer (pH 6.8). […] Then 200 U/ml tyrosinase (0.5 ml) was added thereto, and the reaction performed at the same temperature for 10 minutes. As a control group, buffer solution (0.5 ml) was added instead of the compound. The reaction was quenched by placing the test tube containing the reaction mixture on ice. Absorbance was measured at a wavelength of 475 nm by using a spectrophotometer.

[5] = test system: B-16 melanoma (ATCC CRL 6323) cell line; test: Effect for melanin synthesis in melanocytes (B-16 melanoma); assay type: cell-based, mouse
Protocol: As melanocytes, commercially available B-16 melanoma (ATCC CRL 6323) cell line derived from mouse was used. The melanoma cell line was inoculated in DMEM culture medium containing glucose (4.5 g/l), 10% serum and 1% antibiotic agent, and cultivated in a 50 ml T-flask at 37° C. After cultivation under a condition of 5% CO2 for 24 hours, the culture solution was treated with 0.05% trypsin containing 0.02% EDTA to isolate cells, which was then inoculated in a 50 ml T-flask and cultivated for 48 hours. At this time, the number of cells was 5.76×10^6 cells/flask. A diluted solution of mulberrin in DMEM medium at a proper concentration was incorporated to the cultivated melanoma cells, and the mixture was cultivated at 37° C. for 5 days. After finishing cultivation, culture medium was thoroughly removed, and the residue was treated with 1 ml of saline-phosphate buffer solution (PBS) containing 0.02% EDTA and 0.05% trypsin to isolate cells, which were then centrifuged for 5 minutes to collect pure cells. The obtained cells were treated with a solution of 5% trichloroacetate (TCA), stirred, and centrifuged. Precipitated melanin was washed with saline-phosphate buffer solution, and treated with 1N NaOH to dissolve melanin therein. Absorbance at 475 nm was measured. Melanin concentration was determined from standard concentration curve of synthetic melanin (produced by Sigma).

skin [6] = test: Whitening effect (general statement); conditions: versus Cortex mori, kojic acid, arbutin and Ramulus mori extract

Structure (SMILES): O=C1O[C@H]([C@@H](O)CO)C(O)=C1O [Ascorbic acid (vitamin C), Ascorbic acid]
inhibition of tyrosinase (in words) (tyrosinase [1]): relatively low activity in inhibition of tyrosinase

Structure (SMILES): Oc1ccc(O)cc1 [Hydroquinone]
whitening activity (in words) (skin [2]): irreversible whitening activity | carcinogenicity (in words) (skin [3]): recognized as a carcinogen | skin irritation (in words) (skin [3]): irritates the skin strongly

Structure (SMILES): O=c1cc(CO)occ1O [Kojic acid, kojic acid]
inhibition of tyrosinase (in words) (tyrosinase [1]): high activity

IC50 (concentration required for 50% inhibition of tyrosinase activity) (tyrosinase [4]): 0.50 µg/mL
Structure (SMILES): CC(C)=CCc1c(-c2ccc(O)cc2O)oc2c(CC=C(C)C)c(O)cc(O)c2c1=O [Mulberrin, mulberrin]
inhibition of melanin synthesis (in words) [5]: very excellent effect in inhibiting melanin synthesis | inhibition at 10 µg/mL ([5]; Mus musculus, B16, 120 h, mulberrin 10 μg/ml, 5 days, 37° C., read-out: Inhibition ratio of melanin synthesis): 54.4% | inhibition at 20 µg/mL ([5]; Mus musculus, B16, 120 h, mulberrin 20 μg/ml, 5 days, 37° C., read-out: Inhibition ratio of melanin synthesis): 66.8% | inhibition at 50 µg/mL ([5]; Mus musculus, B16, 120 h, mulberrin 50 μg/ml, 5 days, 37° C., read-out: Inhibition ratio of melanin synthesis): 74.8% | inhibition at 100 µg/mL ([5]; Mus musculus, B16, 120 h, mulberrin 100 μg/ml, 5 days, 37° C., read-out: Inhibition ratio of melanin synthesis): 89.3% | inhibition of melanin synthesis (in words) ([5]; listed as mulberrin): strong whitening agent inhibiting melanin synthesis in melanocytes; also recorded: very strong inhibition effect of melanin synthesis | Content of melanin ([5]; mulberrin 10 μg/ml, 5 days, 37° C.): 1.95 pg/cell | Content of melanin ([5]; mulberrin 20 μg/ml, 5 days, 37° C.): 1.42 pg/cell | Content of melanin ([5]; mulberrin 50 μg/ml, 5 days, 37° C.): 1.07 pg/cell | Content of melanin ([5]; mulberrin 100 μg/ml, 5 days, 37° C.): 0.46 pg/cell | whitening effect compared with conventional whitening agents (in words) (skin [6]): much more intensive whitening effect than conventional whitening agents
